Test results: US9532990B2 (Zhejiang DTRM Biopharma Co. Ltd., priority 2014, dated 2017)

Assays:
TMD-8 cells = assay: Inhibition assay of tumor cell activity (cell viability); assay type: cell-based, human; conditions: single agent, 48 hours, AVG
Method: Inhibition Assay of Tumor Cell Activity:
Tumor cells (TMD-8, DoHH2 and WSU-DLCL2) were transferred and attached to 96-well plates. After one night, blank buffer and selected concentrations (0.01 nM-100 μM) of the test compound solution were added. After 48 hours incubation, CellTiter-Go was added to lyse the cells. Recording luminescent signal and calculate the percent inhibition of cell viability.
TMD-8 is a sensitive human diffuse large B-cell lymphoma cell line, and DoHH2 is a more difficult to treat human follicular lymphoma cell line, while WSU-DLCL2 is a multi-drug resistant (MDR) human non-Hodgkin's lymphoma cell line. Drug combination therapies provided better efficacies in all three tumor models than single targeted agent alone.

TMD-8 lymphoma xenograft = TMD-8 lymphoma xenograft SCID mouse model; assay type: in vivo; conditions: BID; for Antitumor effect: Oral
Method: Compounds (Compounds 45 and others) alone and its combinations were evaluated against tumor growth in xenograft models in female CB-17 SCID mice. The TMD-8, DoHH2, WSU-DLCL2 tumor cells were maintained in vitro as a suspension culture in RPMI-1640 medium supplemented with 10% heat inactivated fetal calf serum at 37° C. in an atmosphere of 5% CO2 in air. The tumor cells were routinely subcultured twice weekly. The cells growing in an exponential growth phase were harvested and counted for tumor inoculation. Each mouse was inoculated subcutaneously at the right flank with the tumor cells (10×10^6) in 0.2 ml of PBS with Matrigel (1:1) for tumor development. The treatments were started after the average tumor size reached approximately 100-200 mm^3. Each group consisted of 6-10 tumor-bearing mice. The testing article (vehicle, compound or combination) was orally administrated to the mice according to the predetermined doses for 14-days or 21-days. Animal body weight and tumor volume were measured every 2-or 3-days throughout the treatment.

[1] = Toxicity and toxicokinetic studies, 28-day rat and dog; conditions: 28-day rat and dog studies
Description: Toxicity and toxicokinetic (TK) studies of the compounds can be performed by well known methods.

[2] = Toxicokinetic (TK) study in rats, 28-day; assay type: in vivo, rat; conditions: for Cmax / Tmax / AUC(0-t): rat, in vivo; for AUC(0-t): read-out: AUC0-24 h
[3] = Pharmacokinetic study in Beagle dogs; assay type: in vivo; conditions: dog, plasma
Method: […] Each group has three animals. For group of intravenous administration, blood samples were collected at pre-dose, 0.033, 0.083, 0.25, 0.5, 1, 3, 6, 9, 24 h post-dose; for group of oral administration, blood samples were collected at pre-dose, 0.083, 0.25, 0.5, 1, 3, 6, 9, 24 h post-dose. After blood collection, HPLC-MS/MS was applied to determine plasma concentrations of the compound.

[4] = Toxicokinetic (TK) study in dogs, 28-day; assay type: in vivo, dog; conditions: for Cmax / Tmax / AUC(0-t): dog, in vivo; for AUC(0-t): read-out: AUC0-24 h
[5] = female, 40 mg/kg, Study Day 1, Female
[6] = female, 40 mg/kg, Study Day 28, Female
[7] = female, 100 mg/kg, Study Day 1, Female
[8] = female, 100 mg/kg, Study Day 28, Female
[9] = female, 200 mg/kg, Study Day 1, Female
[10] = female, 200 mg/kg, Study Day 28, Female
[11] = male, 40 mg/kg, Study Day 1, Male
[12] = male, 40 mg/kg, Study Day 28, Male
[13] = male, 100 mg/kg, Study Day 1, Male
[14] = male, 100 mg/kg, Study Day 28, Male
[15] = male, 200 mg/kg, Study Day 1, Male
[16] = male, 200 mg/kg, Study Day 28, Male
[17] = female, 15 mg/kg/day, Study Day 1, Female
[18] = female, 15 mg/kg/day, Study Day 28, Female
[19] = female, 45 mg/kg/day, Study Day 1, Female
[20] = female, 45 mg/kg/day, Study Day 28, Female
[21] = female, 105 mg/kg/day, Study Day 28, Female
[22] = female, 150 mg/kg/day, Study Day 1, Female
[23] = male, 15 mg/kg/day, Study Day 1, Male
[24] = male, 15 mg/kg/day, Study Day 28, Male
[25] = male, 45 mg/kg/day, Study Day 1, Male
[26] = male, 45 mg/kg/day, Study Day 28, Male
[27] = male, 105 mg/kg/day, Study Day 28, Male
[28] = male, 150 mg/kg/day, Study Day 1, Male

- AUC(0-inf) ([3]; IV, 2 mg/kg, mean): 987 ng·h/mL
- AUC(0-t) ([3]; IV, 2 mg/kg, mean): 977 ng·h/mL
- C0 ([3]; IV, 2 mg/kg, mean): 663 ng/mL
- clearance ([3]; IV, 2 mg/kg, mean): 34.6 mL/min/kg
- half-life ([3]; IV, 2 mg/kg, mean): 2.27 h
- Vd ([3]; IV, 2 mg/kg, mean, read-out: Vdss): 4.24 L/kg
- bioavailability ([3]; PO, 5 mg/kg): 26.2%
- AUC(0-inf) ([3]; PO, 5 mg/kg, mean): 574 ng·h/mL
- AUC(0-t) ([3]; PO, 5 mg/kg, mean): 650 ng·h/mL
- Cmax ([3]; PO, 5 mg/kg, mean): 189 ng/mL
- Tmax ([3]; PO, 5 mg/kg, mean): 1.17 h
- half-life ([3]; PO, 5 mg/kg, mean): 2.92 h
Structure (SMILES): C=CC(=O)N1CC[C@@H](n2nc(-c3ccc(Oc4c(F)c(F)cc(F)c4F)cc3F)c3c(N)ncnc32)C1 [Compound 45, 1-((R)-3-(4-amino-3-(2-fluoro-4-(2,3,5,6-tetrafluorophenoxy)phenyl)-1H-pyrazolo[3,4-d]pyrimidin-1-yl)pyrrolidin-1-yl)prop-2-en-1-one]
- Inh % TMD-8 cell viability (TMD-8 cells; 0.01 μM): 51.66%
- Inh % TMD-8 cell viability (TMD-8 cells; 0.1 μM): 52.40%
- Inh % TMD-8 cell viability (TMD-8 cells; 1 uM): 55.05%
- Antitumor effect (TMD-8 lymphoma xenograft; 5 mg/kg, 21 days (FIG. 2)): 33%
- Antitumor effect (TMD-8 lymphoma xenograft; 10 mg/kg, 14 days (FIG. 1)): 64%
- Antitumor effect (TMD-8 lymphoma xenograft; 30 mg/kg, 14 days (FIG. 1)): 82%
- Antitumor effect (TMD-8 lymphoma xenograft; 90 mg/kg, 14 days (FIG. 1)): 93%
- TMD-8 tumor growth suppression (TMD-8 lymphoma xenograft; multiple doses, p.o., 14 days (FIG. 1)): significant TMD-8 tumor growth suppressions were dose-depended
- drug exposure, Day 1 versus Day 28 [1]: no significant difference in drug exposure between Day 1 and Day 28
- drug exposure, male versus female [1]: no significant difference in drug exposure between male and female
- AUC compared with ibrutinib ([2]; TK data): significantly higher than that of ibrutinib
- Cmax [2, 5]: 2660 ng/mL
- Tmax [2, 5]: 1 h
- AUC(0-t) [2, 5]: 17300 ng·h/mL
- Cmax [2, 6]: 2970 ng/mL
- Tmax [2, 6]: 1 h
- AUC(0-t) [2, 6]: 17300 ng·h/mL
- Cmax [2, 7]: 3700 ng/mL
- Tmax [2, 7]: 4 h
- AUC(0-t) [2, 7]: 28900 ng·h/mL
- Cmax [2, 8]: 3830 ng/mL
- Tmax [2, 8]: 1 h
- AUC(0-t) [2, 8]: 29600 ng·h/mL
- Cmax [2, 9]: 4680 ng/mL
- Tmax [2, 9]: 4 h
- AUC(0-t) [2, 9]: 65200 ng·h/mL
- Cmax [2, 10]: 5490 ng/mL
- Tmax [2, 10]: 8 h
- AUC(0-t) [2, 10]: 60200 ng·h/mL
- Cmax [2, 11]: 2160 ng/mL
- Tmax [2, 11]: 2 h
- AUC(0-t) [2, 11]: 13700 ng·h/mL
- Cmax [2, 12]: 2090 ng/mL
- Tmax [2, 12]: 2 h
- AUC(0-t) [2, 12]: 15400 ng·h/mL
- Cmax [2, 13]: 2740 ng/mL
- Tmax [2, 13]: 2 h
- AUC(0-t) [2, 13]: 21700 ng·h/mL
- Cmax [2, 14]: 3990 ng/mL
- Tmax [2, 14]: 2 h
- AUC(0-t) [2, 14]: 30300 ng·h/mL
- Cmax [2, 15]: 4220 ng/mL
- Tmax [2, 15]: 2 h
- AUC(0-t) [2, 15]: 37600 ng·h/mL
- Cmax [2, 16]: 4540 ng/mL
- Tmax [2, 16]: 2 h
- AUC(0-t) [2, 16]: 45100 ng·h/mL
- AUC compared with ibrutinib ([4]; TK data): significantly higher than that of ibrutinib
- Cmax [4, 17]: 685 ± 212 ng/mL
- Tmax [4, 17]: 1 h
- AUC(0-t) [4, 17]: 2930 ng·h/mL
- Cmax [4, 18]: 687 ± 123 ng/mL
- Tmax [4, 18]: 2 h
- AUC(0-t) [4, 18]: 3730 ± 549 ng·h/mL
- Cmax [4, 19]: 1220 ± 431 ng/mL
- Tmax [4, 19]: 2 h
- AUC(0-t) [4, 19]: 6220 ± 3000 ng·h/mL
- Cmax [4, 20]: 1060 ± 263 ng/mL
- Tmax [4, 20]: 2 h
- AUC(0-t) [4, 20]: 8130 ± 1490 ng·h/mL
- Cmax [4, 21]: 2420 ± 670 ng/mL
- Tmax [4, 21]: 2 h
- AUC(0-t) [4, 21]: 17300 ± 2830 ng·h/mL
- Cmax [4, 22]: 1850 ± 605 ng/mL
- Tmax [4, 22]: 2 h
- AUC(0-t) [4, 22]: 11200 ± 5990 ng·h/mL
- Cmax [4, 23]: 746 ng/mL
- Tmax [4, 23]: 2 h
- AUC(0-t) [4, 23]: 3550 ng·h/mL
- Cmax [4, 24]: 576 ± 145 ng/mL
- Tmax [4, 24]: 2 h
- AUC(0-t) [4, 24]: 3260 ± 732 ng·h/mL
- Cmax [4, 25]: 1240 ± 381 ng/mL
- Tmax [4, 25]: 2 h
- AUC(0-t) [4, 25]: 6480 ± 1670 ng·h/mL
- Cmax [4, 26]: 1470 ± 538 ng/mL
- Tmax [4, 26]: 2 h
- AUC(0-t) [4, 26]: 9170 ± 3810 ng·h/mL
- Cmax [4, 27]: 2700 ± 769 ng/mL
- Tmax [4, 27]: 2 h
- AUC(0-t) [4, 27]: 16400 ± 5410 ng·h/mL
- Cmax [4, 28]: 2460 ± 858 ng/mL
- Tmax [4, 28]: 4 h
- AUC(0-t) [4, 28]: 22900 ± 13900 ng·h/mL
